Data reported in ChEMBL document CHEMBL1131388, “Synthesis and antitumor activity of 4-phenyl-1-arylsulfonyl imidazolidinones” (Bioorg Med Chem Lett, 1998).
pIC50: −log10 of the molar value.

Columns and labels:
K562 = test: Cytotoxicity against human chronic myelogenous leukemia (K562) cell line using MTT assay; assay type: functional, cell-based
SK-OV-3 = test: Cytotoxicity against human ovarian adenocarcinoma (SK-OV-3) cell line using MTT assay; assay type: functional, cell-based
A549 = test: Cytotoxicity against human lung carcinoma A549 cell line using MTT assay
NCI-H23 [1] = test: Antitumor activity was evaluated against human lung carcinoma (NCI-H23) as body weight change in human tumor xenograft mice upon peroral administration at a dose of 65 mg/kg; assay type: functional; details: route oral
[2] = Antitumor activity was evaluated against Lewis lung carcinoma as tumor growth inhibition was determined in BDF1 mice upon peroral administration at a dose of 100 mg/kg; assay type: functional; details: Mus musculus, route oral, read-out: TGI
SW-620 [3] = test: Antitumor activity was evaluated against human colon carcinoma (SW620) as body weight change in human tumor xenograft mice upon peroral administration at a dose of 65 mg/kg; assay type: functional; details: route oral
NCI-H23 [4] = test: Antitumor activity was evaluated against human lung carcinoma (NCI-H23) as tumor growth inhibition in human tumor xenograft mice upon peroral administration at a dose of 65 mg/kg; assay type: functional; details: Mus musculus, route oral, read-out: TGI
Colon 26 [5] = test: Antitumor activity was evaluated against murine colon carcinoma (Colon26) as tumor growth inhibition was determined in BALB/c mice upon peroral administration at a dose of 65 mg/kg; assay type: functional; details: Mus musculus, route oral, read-out: TGI
SW-620 [6] = test: Antitumor activity was evaluated against human colon carcinoma (SW620) as tumor growth inhibition in human tumor xenograft mice upon peroral administration at a dose of 65 mg/kg; assay type: functional; details: Mus musculus, route oral, read-out: TGI
[7] = Antitumor activity was evaluated against Lewis lung carcinoma as body weight change in BDF1 mice upon peroral administration at a dose of 100 mg/kg; assay type: functional, Mus musculus; details: route oral
Colon 26 [8] = test: Antitumor activity was evaluated against murine colon carcinoma (Colon26) as body weight change in BALB/c mice upon peroral administration at a dose of 65 mg/kg; assay type: functional, Mus musculus; details: route oral
[9] = Antitumor activity was evaluated against Lewis lung carcinoma as tumor growth inhibition was determined in BDF1 mice upon intraperitoneal administration at a dose of 4 mg/kg; assay type: functional, Mus musculus
Colon 26 [10] = test: Antitumor activity was evaluated against murine colon carcinoma (Colon26) as tumor growth inhibition was determined in BALB/c mice upon intraperitoneal administration at a dose of 4 mg/kg; assay type: functional, Mus musculus
SW-620 [11] = test: Antitumor activity was evaluated against human colon carcinoma (SW620) as tumor growth inhibition in human tumor xenograft mice upon intraperitoneal administration at doses of 1,2,3mg/kg; assay type: functional
SW-620 [12] = test: Antitumor activity was evaluated against human colon carcinoma (SW620) as body weight change in human tumor xenograft mice upon intraperitoneal administration at doses of 1,2,3mg/kg; assay type: functional
NCI-H23 [13] = test: Antitumor activity was evaluated against human lung carcinoma (NCI-H23) as tumor growth inhibition in human tumor xenograft mice upon intraperitoneal administration at doses of 1,2,3mg/kg; assay type: functional
NCI-H23 [14] = test: Antitumor activity was evaluated against human lung carcinoma (NCI-H23) as body weight change in human tumor xenograft mice upon intraperitoneal administration at doses of 1,2,3mg/kg; assay type: functional
Colon 26 [15] = test: Antitumor activity was evaluated against murine colon carcinoma (Colon26) as body weight change in BALB/c mice upon intraperitoneal administration at a dose of 4 mg/kg; assay type: functional, Mus musculus
[16] = Antitumor activity was evaluated against Lewis lung carcinoma as body weight change in BDF1 mice upon intraperitoneal administration at a dose of 4 mg/kg; assay type: functional, Mus musculus

Compound | pIC50 (K562) | pIC50 (SK-OV-3) | pIC50 (A549) | further results
O=C1NC(c2ccccc2)CN1S(=O)(=O)c1ccc2c(c1)CCC2 (stereo not drawn) | 4.37 | 4.92 | 5.32 | 
O=C(c1ccc([N+](=O)[O-])cc1)N1CCc2cc(S(=O)(=O)N3CC(c4ccccc4)NC3=O)ccc21 (stereo not drawn) | 4.74 | 5.37 | 5.46 | 
O=C(c1ccccc1)N1CCc2cc(S(=O)(=O)N3CC(c4ccccc4)NC3=O)ccc21 (stereo not drawn) | 5.39 | 6.25 | 6.36 | 
Nc1ccc(C(=O)N2CCc3cc(S(=O)(=O)N4CC(c5ccccc5)NC4=O)ccc32)cc1 (stereo not drawn) | 6.36 | 5.91 | 6.70 | Body weight change (NCI-H23 [1]): 0.6 g; inhibition in vivo at 100 mg/kg [2]: 84.3%; Body weight change (SW-620 [3]): 1 g; inhibition in vivo at 65 mg/kg (NCI-H23 [4]): 67%; inhibition in vivo at 65 mg/kg (Colon 26 [5]): 55.6%; inhibition in vivo at 65 mg/kg (SW-620 [6]): 87%; Body weight change [7]: -1 g; Body weight change (Colon 26 [8]): 0.4 g
COc1cccc2c1C(=O)c1c(O)c3c(c(O)c1C2=O)C[C@@](O)(C(=O)CO)C[C@@H]3O[C@H]1C[C@H](N)[C@H](O)[C@H](C)O1 [DOXORUBICIN] | 5.75 | 5.38 |  | TCI [9]: 60.4%; TCI (Colon 26 [10]): 42.5%; TCI (SW-620 [11]): 49%; Body weight change (SW-620 [12]): -2.6 g; TCI (NCI-H23 [13]): 39%; Body weight change (NCI-H23 [14]): -2.6 g; Body weight change (Colon 26 [15]): 3 g; Body weight change [16]: 2 g
O=C(Nc1ccc(Cl)cc1)NS(=O)(=O)c1ccc2c(c1)CCC2 [SULOFENUR] | 4.30 | 3.65 | 4.44 | 
